Measured values: ChEMBL document CHEMBL1150324, “Support vector machines classification of hERG liabilities based on atom types” (Bioorg Med Chem, 2008)

Columns and labels:
hERG (KCNH2) = hERG (KCNH2) (Homo sapiens, UniProt Q12809); assay: (§1) Inhibition of human ERG expressed in CHO cells by whole cell patch clamp technique; settings: human
[1] = target: Voltage-gated inwardly rectifying potassium channel KCNH2 (Homo sapiens, UniProt Q12809); assay: as §1; settings: for pIC50: human
[2] = CHO cells that express human ERG

Sequence of Voltage-gated inwardly rectifying potassium channel KCNH2 (Q12809 whole entry): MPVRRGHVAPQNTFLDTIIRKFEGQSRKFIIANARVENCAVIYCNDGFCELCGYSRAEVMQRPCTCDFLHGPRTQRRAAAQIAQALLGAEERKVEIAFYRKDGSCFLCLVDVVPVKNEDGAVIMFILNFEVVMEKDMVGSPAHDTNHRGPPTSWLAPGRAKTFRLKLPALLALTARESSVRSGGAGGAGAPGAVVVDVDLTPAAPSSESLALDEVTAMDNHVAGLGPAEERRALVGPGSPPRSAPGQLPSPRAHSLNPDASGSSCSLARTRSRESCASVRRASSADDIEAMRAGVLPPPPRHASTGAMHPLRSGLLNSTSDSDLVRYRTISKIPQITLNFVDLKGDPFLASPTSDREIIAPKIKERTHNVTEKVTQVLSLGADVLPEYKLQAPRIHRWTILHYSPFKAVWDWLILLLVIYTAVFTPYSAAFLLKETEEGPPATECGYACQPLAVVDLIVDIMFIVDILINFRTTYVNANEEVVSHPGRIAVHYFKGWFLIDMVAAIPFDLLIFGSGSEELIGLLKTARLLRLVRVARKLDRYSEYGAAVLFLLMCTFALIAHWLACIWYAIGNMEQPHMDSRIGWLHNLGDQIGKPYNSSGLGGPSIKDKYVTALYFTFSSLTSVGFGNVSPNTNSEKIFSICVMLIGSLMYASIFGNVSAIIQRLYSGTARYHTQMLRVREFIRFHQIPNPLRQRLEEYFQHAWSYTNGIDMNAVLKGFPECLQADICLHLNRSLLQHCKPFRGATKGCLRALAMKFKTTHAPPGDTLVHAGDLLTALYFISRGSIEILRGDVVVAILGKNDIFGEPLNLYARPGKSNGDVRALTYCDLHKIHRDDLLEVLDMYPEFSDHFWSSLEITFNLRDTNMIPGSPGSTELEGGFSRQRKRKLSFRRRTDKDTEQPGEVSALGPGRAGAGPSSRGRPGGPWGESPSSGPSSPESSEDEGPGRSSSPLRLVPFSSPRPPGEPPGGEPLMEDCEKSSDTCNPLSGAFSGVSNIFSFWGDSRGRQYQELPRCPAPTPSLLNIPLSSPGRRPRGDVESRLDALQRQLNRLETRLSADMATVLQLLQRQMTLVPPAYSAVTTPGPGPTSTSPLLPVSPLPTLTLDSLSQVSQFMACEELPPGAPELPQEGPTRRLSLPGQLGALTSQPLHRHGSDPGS
Sequence of hERG (KCNH2) (Q12809 whole entry): as above

CCOC(=O)C1=C(C)NC(C)=C(C(=O)OC)C1c1cccc([N+](=O)[O-])c1 (configuration not stated) [NITRENDIPINE]
IC50 (hERG (KCNH2); [2]): 10 µM

CC[C@H]1OC(=O)[C@H](C)[C@@H](O[C@H]2C[C@@](C)(OC)[C@@H](O)[C@H](C)O2)[C@H](C)[C@@H](O[C@@H]2O[C@H](C)C[C@H](N(C)C)[C@H]2O)[C@](C)(OC)C[C@@H](C)C(=O)[C@H](C)[C@@H](O)[C@]1(C)O [CLARITHROMYCIN]
pIC50 ([1]; cho): 4.23

CN(c1nccc(=O)[nH]1)C1CCN(c2nc3ccccc3n2Cc2ccc(F)cc2)CC1 [MIZOLASTINE]
pIC50 ([1]; cho): 6.36

O=C(OC1CC2CC3CC(C1)N2CC3O)c1c[nH]c2ccccc12 (configuration not stated) [MDL-74156]
IC50 [1]: 5.89 µM

C[C@@H]1CN(c2c(F)c(N)c3c(=O)c(C(=O)O)cn(C4CC4)c3c2F)C[C@H](C)N1 [SPARFLOXACIN]
pIC50 [1, 2]: 4.74

CN1CCC[C@H]1c1cccnc1 [NICOTINE]
pIC50 ([1]; cho): 3.61

Cc1cc2c(s1)Nc1ccccc1N=C2N1CCN(C)CC1 [OLANZAPINE]
pIC50 ([1]; cho): 6.74

COc1ccc(C(=O)N2CCN(c3ccc4c(c3)CCC(=O)N4)CC2)cc1OC [VESNARINONE]
pIC50 [1, 2]: 5.96

COc1ccc(C2CCN(CC[C@H]3CCOc4ccccc43)CC2)cc1OC
pIC50 ([1]; cho): 6.7

COc1ccc(C2CCN(CC[C@H]3CCOc4ccccc43)CC2)cc1OC [TERIKALANT]
IC50 (hERG (KCNH2); cho): 0.251 µM

COc1c(N2CCNC(C)C2)c(F)cc2c(=O)c(C(=O)O)cn(C3CC3)c12 (configuration not stated) [GATIFLOXACIN]
IC50 [1]: 129 µM

Oc1ccc(CCN2CCC(Nc3nc4ccccc4n3Cc3ccc(F)cc3)CC2)cc1 [DESMETHEYLASTEMIZOLE]
IC50 [1]: 0.001 µM
